# According to patent US20190015400A1, “Antifungal Compositions” (priority 2017, published 2019):
# Assays:
# [1] = tested on: C. glabrata ATCC 2001 (strain H); test: Time-kill assay, POS and EBA; format: cell-based, Candida glabrata; conditions: POS + EBA combination at 1×MIC
# Experimental: (§1) The protocol for time-kill assays followed methods previously described with minor modifications. Yeast cultures were grown overnight in YEPD medium at 35° C. with shaking at 200 rpm. A working stock of fungal cells was made by diluting cultures in 1640 medium to an OD600 of 0.125 (˜1×10^6 CFU/mL). From the working stock, 100 μL of cells was added to 4.9 mL of RPMI 1640 medium in sterile culture tubes, making the starting fungal cell concentration ˜1×10^5 CFU/mL. Drug was then added to the fungal cells. […] Treated fungal cultures were incubated in the culture tubes at 35° C. with 200 rpm shaking for 24 h. Samples were aliquoted from the different treatments at regular time points (0, 3, 6, 9, 12, and 24 h) and plated in duplicate. For each time point, cultures were vortexed, 100 μL of culture was aspirated, and 10-fold serial dilutions were made in sterile ddH2O. From the appropriate dilutions, 100 μL of fungal suspension was spread on PDA plates and incubated at 35° C. for 48 h before colony counts were determined. At 24 h, 50 μL of 1 mM resazurin in phosphate buffered saline (PBS) was added to the treatments and incubated at 35° C. with 200 rpm shaking for 2 h in the dark for visual inspection. […] Experiments were performed in duplicate.
# [2] = tested on: C. glabrata ATCC 2001 (strain H); test: MIC and checkerboard assay, azoles + antihistamines; format: cell-based, Candida glabrata; conditions: in combination with POS
# Experimental: Determination of minimum inhibitory concentration (MIC) values. MIC values were recorded for all antifungals and antihistamines in order to determine the concentration range of compounds to be used in the checkerboard assays.
# The MIC assays were done using the broth microdilution method as described in CLSI document M27-A3 with minor modifications. Yeast cultures were started by picking a colony from a PDA plate stored at 4° C. The colonies were grown in YEPD medium overnight at 35° C. with shaking at 200 rpm. In a 96-well plate compounds were diluted lengthwise along the plate in serial 2-fold dilutions in the RPMI 1640 medium. The yeast cultures were diluted in RPMI 1640 medium to an OD600 within the range of 0.12 and 0.15 (˜1×10^6 cells/mL). The fungal cells were further diluted by taking 25 μL of fungal cells and adding them to 10 mL of RPMI 1640 medium before adding 100 μL to plate (200 μL total volume). The plates were incubated at 35° C. for 48 h. Visual inspection of the wells for no growth was used to determine the MIC. All compounds were tested in duplicate (TABLES 6 and 7).
# Checkerboard assays were done as previously described to determine the fractional inhibitory concentration index (FICI). 2-fold dilutions of the azole drug were made in RPMI 1640 medium lengthwise along the plate. For the antihistamine, 2-fold serial dilutions were made in sterile tubes with RPMI 1640 medium, then aliquoted into the plate. […] The maximal amount was used in the checkerboard assays if complete inhibition was not observed in the MIC assays. Cultures were started by picking a colony from a plate and growing in YEPD medium overnight at 35° C. with shaking at 200 rpm. Cultures were diluted in RPMI 1640 medium to an OD600 between 0.12 and 0.15 (˜1×10^6 cells/mL). Cells were then further diluted by taking 25 μL of cell suspension and adding to 10 mL of RPMI 1640 medium. After the drugs were added to the plate with 100 μL of medium, 100 μL of fungal cells were added. Plates were incubated at 35° C. for 48 h and visual inspection was used to determine wells with no growth. All experiments were carried out in duplicate. The FICI was calculated based on the formula below. The combinational effect of the 2 tested compounds were considered synergistic (SYN) if FICI≤0.5, additive (ADD) if 0.5<FICI≤4, and antagonistic if FICI>4 (TABLES 6-9).
# HEK-293 cells = test: Mammalian cytotoxicity (resazurin cell viability), POS and EBA; format: cell-based, human; conditions: EBA alone at 25 μg/mL
# Experimental: (§2) To examine whether the inhibitory effect of the antifungal and antihistamine combinations is specific to fungal cells, the combinations were tested with 4 mammalian cell lines: A459, BEAS-2B, HEK-293, and HaCaT. […] The assays were done in 96-well plates. A549 and BEAS-2B cells were plated at a density of 3×10^3 cells/mL, HaCaT were plated at 2×10^4 cells/mL, and HEK-293 cells were plated at 1×10^4 cells/mL as determined by using a hemacytometer. […] All assays were done in quadruplicate.
# A549 cells = test: as above; format: cell-based, human; conditions: EBA alone at 25 μg/mL
# Experimental: as §2
# BEAS-2B cells = test: as above; format: cell-based, human; conditions: EBA alone at 25 μg/mL
# Experimental: as §2
# HaCaT cells = test: as above; format: cell-based, human; conditions: EBA alone at 25 μg/mL
# Experimental: as §2
# [3] = tested on: C. albicans ATCC 10231 (strain B); test: Time-kill assay, POS and EBA; format: cell-based, Candida albicans; conditions: POS + EBA combination at 1×MIC
# Experimental: as §1
# [4] = aqueous assay medium, from DMSO stock
maximal concentration where no precipitation was observed [4] [µg/mL],SMILES,CFU/mL through 24 h [1],FICI [2],cell survival (HEK-293 cells) [%],cell survival (A549 cells) [%],cell survival (BEAS-2B cells) [%],cell survival (HaCaT cells) [%],CFU/mL through 24 h [3]
,"CC(C)(C)c1ccc(C(=O)CCCN2CCC(OC(c3ccccc3)c3ccccc3)CC2)cc1 [EBA, ebastine]",10^6 CFU/mL,0.05,~0,~0,~0,~0,10^6 CFU/mL
42.7,"CC(C)(C)c1ccc(C(O)CCCN2CCC(C(O)(c3ccccc3)c3ccccc3)CC2)cc1 (centres unmarked) [TERF, terfenadine]",,,,,,,
